Assay results taken from the kinase profiling compilation of Christmann-Franck et al. (2016).

How the values were obtained:
Conditions in all cases: compound 10.0 µM
ACVR1 (human) = ACVR1 (human) (UniProt Q04771)
AKT1 (human) = AKT1 (human) (UniProt P31749)
AURKA (human) = AURKA (human) (UniProt O14965)
AURKB (human) = AURKB (human) (UniProt Q96GD4)
CAMKK1 (human) = CAMKK1 (human) (UniProt Q8N5S9)
CAMKK2 (human) = CAMKK2 (human) (UniProt Q96RR4)
CDK4 CCND1 (human) = CDK4 CCND1 (human) (UniProt P11802+P24385)
CLK4 (human) = CLK4 (human) (UniProt Q9HAZ1)
CSNK1D (human) = CSNK1D (human) (UniProt P48730)
DAPK3 (human) = DAPK3 (human) (UniProt O43293)
DCLK2 (human) = DCLK2 (human) (UniProt Q8N568)
DYRK4 (human) = DYRK4 (human) (UniProt Q9NR20)
EPHA1 (human) = EPHA1 (human) (UniProt P21709)
EPHA2 (human) = EPHA2 (human) (UniProt P29317)
EPHA7 (human) = EPHA7 (human) (UniProt Q15375)
FLT1 (human) = FLT1 (human) (UniProt P17948)
IKBKB (human) = IKBKB (human) (UniProt O14920)
LYN (human) = LYN (human) (UniProt P07948)
MAP3K7 (human) = MAP3K7 (human) (UniProt O43318)
MAP4K4 (human) = MAP4K4 (human) (UniProt O95819)
MAPK9 (human) = MAPK9 (human) (UniProt P45984)
MINK1 (human) = MINK1 (human) (UniProt Q8N4C8)
MUSK (human) = MUSK (human) (UniProt O15146)
PAK2 (human) = PAK2 (human) (UniProt Q13177)
PAK3 (human) = PAK3 (human) (UniProt O75914)
PHKG1 (human) = PHKG1 (human) (UniProt Q16816)
PKN1 (human) = PKN1 (human) (UniProt Q16512)
RAF1 (human) = RAF1 (human) (UniProt P04049)
RPS6KA5 KD1 KD2 (human) = RPS6KA5 KD1 KD2 (human) (UniProt O75582)
STK17A (human) = STK17A (human) (UniProt Q9UEE5)
TAOK3 (human) = TAOK3 (human) (UniProt Q9H2K8)
TSSK2 (human) = TSSK2 (human) (UniProt Q96PF2)
TXK (human) = TXK (human) (UniProt P42681)

Chain of DAPK3 (human) (O43293 whole entry, looked up): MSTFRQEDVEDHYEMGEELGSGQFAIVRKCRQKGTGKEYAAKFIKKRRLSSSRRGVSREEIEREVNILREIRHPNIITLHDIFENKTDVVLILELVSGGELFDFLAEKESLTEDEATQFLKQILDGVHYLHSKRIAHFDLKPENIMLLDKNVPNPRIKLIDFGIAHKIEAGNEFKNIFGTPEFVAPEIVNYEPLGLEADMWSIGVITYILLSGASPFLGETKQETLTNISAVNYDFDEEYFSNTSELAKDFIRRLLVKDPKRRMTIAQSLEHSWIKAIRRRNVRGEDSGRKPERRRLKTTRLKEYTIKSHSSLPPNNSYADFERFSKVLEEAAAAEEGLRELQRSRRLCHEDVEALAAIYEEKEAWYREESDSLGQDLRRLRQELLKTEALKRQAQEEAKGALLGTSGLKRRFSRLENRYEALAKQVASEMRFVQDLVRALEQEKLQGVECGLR
Chain of PAK3 (human) (O75914 whole entry, looked up): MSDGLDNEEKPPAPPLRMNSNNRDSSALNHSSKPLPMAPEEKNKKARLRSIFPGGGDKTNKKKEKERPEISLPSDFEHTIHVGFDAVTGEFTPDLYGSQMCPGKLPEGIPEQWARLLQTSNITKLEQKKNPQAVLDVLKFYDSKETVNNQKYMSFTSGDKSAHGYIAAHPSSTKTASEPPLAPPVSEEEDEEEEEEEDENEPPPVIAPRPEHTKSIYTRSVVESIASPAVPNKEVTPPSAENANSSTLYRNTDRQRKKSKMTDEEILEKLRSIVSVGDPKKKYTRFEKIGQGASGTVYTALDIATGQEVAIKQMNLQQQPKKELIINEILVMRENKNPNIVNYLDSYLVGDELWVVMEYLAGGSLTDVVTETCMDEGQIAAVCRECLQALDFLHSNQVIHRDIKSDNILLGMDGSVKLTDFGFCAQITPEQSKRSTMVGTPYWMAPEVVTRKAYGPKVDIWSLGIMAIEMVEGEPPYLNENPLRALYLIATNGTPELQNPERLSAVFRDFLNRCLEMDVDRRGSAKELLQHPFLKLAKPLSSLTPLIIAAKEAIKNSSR
Chain of STK17A (human) (Q9UEE5 whole entry, looked up): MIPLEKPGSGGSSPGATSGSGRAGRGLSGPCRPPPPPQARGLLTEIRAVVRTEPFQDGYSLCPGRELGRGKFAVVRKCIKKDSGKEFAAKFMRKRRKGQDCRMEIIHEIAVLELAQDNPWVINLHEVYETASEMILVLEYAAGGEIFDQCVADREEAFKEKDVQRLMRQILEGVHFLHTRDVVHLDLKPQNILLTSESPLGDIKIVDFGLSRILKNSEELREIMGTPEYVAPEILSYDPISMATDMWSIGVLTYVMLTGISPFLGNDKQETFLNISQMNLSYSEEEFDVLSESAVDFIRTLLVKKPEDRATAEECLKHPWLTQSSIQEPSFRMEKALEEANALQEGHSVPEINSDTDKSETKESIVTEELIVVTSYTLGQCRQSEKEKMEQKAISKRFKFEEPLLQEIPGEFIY
Chain of MAPK9 (human) (P45984 whole entry, looked up): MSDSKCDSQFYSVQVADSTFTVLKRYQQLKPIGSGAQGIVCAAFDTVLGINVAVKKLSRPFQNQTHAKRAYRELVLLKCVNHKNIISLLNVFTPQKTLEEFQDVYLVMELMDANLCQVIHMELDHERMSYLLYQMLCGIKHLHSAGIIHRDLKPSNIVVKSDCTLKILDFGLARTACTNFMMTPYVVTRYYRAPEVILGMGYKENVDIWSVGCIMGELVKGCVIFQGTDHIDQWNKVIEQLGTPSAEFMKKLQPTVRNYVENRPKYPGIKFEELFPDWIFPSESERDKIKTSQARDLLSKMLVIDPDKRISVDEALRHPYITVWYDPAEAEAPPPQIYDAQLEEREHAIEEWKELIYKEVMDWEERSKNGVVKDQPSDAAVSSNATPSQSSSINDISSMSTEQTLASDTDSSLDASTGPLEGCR
Chain of EPHA1 (human) (P21709 whole entry, looked up): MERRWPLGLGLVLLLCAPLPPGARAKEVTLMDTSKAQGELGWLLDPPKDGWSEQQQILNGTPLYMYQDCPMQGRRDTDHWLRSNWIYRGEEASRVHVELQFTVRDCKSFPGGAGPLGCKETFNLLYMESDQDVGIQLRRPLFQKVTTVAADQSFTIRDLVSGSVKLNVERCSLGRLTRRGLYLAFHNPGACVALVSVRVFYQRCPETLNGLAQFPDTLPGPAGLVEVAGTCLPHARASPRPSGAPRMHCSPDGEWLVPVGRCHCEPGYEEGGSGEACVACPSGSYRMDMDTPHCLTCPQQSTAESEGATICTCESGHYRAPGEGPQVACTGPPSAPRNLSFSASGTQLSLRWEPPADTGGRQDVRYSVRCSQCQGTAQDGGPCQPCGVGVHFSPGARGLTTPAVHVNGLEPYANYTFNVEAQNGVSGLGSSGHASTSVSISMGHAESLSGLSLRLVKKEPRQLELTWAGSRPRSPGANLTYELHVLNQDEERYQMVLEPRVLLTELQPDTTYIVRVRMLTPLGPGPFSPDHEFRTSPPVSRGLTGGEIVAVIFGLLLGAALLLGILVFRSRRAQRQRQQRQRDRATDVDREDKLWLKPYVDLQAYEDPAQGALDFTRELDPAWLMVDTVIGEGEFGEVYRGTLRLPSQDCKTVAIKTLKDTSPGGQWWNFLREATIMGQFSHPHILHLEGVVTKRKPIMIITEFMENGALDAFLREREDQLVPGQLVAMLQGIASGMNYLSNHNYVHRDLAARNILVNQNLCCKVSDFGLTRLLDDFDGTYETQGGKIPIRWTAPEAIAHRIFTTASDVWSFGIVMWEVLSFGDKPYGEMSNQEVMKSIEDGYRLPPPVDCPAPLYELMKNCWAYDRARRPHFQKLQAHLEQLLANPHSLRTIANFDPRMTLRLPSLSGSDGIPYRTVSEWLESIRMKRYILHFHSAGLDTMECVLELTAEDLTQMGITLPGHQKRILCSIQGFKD
Chain of CLK4 (human) (Q9HAZ1 whole entry, looked up): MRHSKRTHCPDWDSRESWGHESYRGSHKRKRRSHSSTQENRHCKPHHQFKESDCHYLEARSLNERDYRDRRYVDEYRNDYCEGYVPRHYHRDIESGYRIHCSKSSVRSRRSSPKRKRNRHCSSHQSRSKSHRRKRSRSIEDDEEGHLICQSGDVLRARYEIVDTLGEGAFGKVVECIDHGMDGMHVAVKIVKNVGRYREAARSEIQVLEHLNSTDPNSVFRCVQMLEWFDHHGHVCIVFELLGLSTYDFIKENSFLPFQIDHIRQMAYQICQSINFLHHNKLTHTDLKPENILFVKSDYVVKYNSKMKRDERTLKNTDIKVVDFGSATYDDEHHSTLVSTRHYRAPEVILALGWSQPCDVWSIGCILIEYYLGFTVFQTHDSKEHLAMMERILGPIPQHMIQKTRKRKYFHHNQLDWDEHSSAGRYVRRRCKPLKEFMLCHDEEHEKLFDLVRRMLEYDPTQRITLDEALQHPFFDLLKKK
Chain of ACVR1 (human) (Q04771 whole entry, looked up): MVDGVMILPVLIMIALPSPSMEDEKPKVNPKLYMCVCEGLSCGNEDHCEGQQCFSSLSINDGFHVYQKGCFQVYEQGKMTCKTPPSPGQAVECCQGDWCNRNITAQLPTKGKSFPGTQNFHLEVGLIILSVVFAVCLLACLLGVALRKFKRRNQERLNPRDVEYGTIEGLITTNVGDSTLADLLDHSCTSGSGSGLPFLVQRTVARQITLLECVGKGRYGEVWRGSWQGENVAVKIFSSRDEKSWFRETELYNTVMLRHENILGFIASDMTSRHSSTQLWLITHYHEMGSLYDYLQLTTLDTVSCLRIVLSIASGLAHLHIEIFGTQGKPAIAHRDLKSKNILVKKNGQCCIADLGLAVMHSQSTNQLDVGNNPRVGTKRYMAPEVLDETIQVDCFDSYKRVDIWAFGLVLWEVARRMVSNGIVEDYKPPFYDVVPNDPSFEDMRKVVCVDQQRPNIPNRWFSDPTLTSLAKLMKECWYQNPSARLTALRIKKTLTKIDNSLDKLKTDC
Chain of TSSK2 (human) (Q96PF2 whole entry, looked up): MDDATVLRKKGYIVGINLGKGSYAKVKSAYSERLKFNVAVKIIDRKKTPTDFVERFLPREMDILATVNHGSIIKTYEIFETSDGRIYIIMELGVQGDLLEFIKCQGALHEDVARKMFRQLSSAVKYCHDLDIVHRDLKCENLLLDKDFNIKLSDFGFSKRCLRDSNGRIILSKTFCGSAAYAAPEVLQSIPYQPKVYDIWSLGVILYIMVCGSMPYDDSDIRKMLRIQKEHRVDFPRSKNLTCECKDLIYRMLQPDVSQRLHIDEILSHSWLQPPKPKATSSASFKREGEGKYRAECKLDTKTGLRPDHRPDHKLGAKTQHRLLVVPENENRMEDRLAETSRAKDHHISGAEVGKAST
Chain of RAF1 (human) (P04049 whole entry, looked up): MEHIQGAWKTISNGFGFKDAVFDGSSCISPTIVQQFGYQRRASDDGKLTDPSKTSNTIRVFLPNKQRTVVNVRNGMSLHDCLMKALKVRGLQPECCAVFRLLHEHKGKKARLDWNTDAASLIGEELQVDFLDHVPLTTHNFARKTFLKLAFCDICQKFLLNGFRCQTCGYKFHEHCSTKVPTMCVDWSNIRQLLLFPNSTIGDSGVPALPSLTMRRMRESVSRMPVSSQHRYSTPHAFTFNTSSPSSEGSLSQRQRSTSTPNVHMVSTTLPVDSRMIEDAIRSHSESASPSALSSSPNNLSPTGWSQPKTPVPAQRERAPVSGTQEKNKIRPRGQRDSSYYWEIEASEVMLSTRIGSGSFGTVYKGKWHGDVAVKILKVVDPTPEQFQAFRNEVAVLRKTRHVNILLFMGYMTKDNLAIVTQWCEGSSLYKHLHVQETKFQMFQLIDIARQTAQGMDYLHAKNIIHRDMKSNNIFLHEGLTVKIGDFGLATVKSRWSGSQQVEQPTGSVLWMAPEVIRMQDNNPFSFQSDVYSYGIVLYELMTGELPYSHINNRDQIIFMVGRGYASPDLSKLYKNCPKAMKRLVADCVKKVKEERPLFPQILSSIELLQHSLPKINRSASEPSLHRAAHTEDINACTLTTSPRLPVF

Compound: CC[C@H](C)n1cc(C)c2c(C(=O)NCc3c(C)cc(C)[nH]c3=O)cc(-c3ccc(N4CCNCC4)nc3)cc21
- residual activity (ACVR1 (human)): 92.5%
- residual activity (AKT1 (human)): 91%
- residual activity (AURKA (human)): 88%
- residual activity (AURKB (human)): 104%
- residual activity (CAMKK1 (human)): 96%
- residual activity (CAMKK2 (human)): 98%
- residual activity (CDK4 CCND1 (human)): 94.5%
- residual activity (CLK4 (human)): 95.5%
- residual activity (CSNK1D (human)): 100%
- residual activity (DAPK3 (human)): 106%
- residual activity (DCLK2 (human)): 104%
- residual activity (DYRK4 (human)): 98.5%
- residual activity (EPHA1 (human)): 104%
- residual activity (EPHA2 (human)): 106%
- residual activity (EPHA7 (human)): 91.5%
- residual activity (FLT1 (human)): 97.5%
- residual activity (IKBKB (human)): 102%
- residual activity (LYN (human)): 104%
- residual activity (MAP3K7 (human)): 106%
- residual activity (MAP4K4 (human)): 102%
- residual activity (MAPK9 (human)): 80.5%
- residual activity (MINK1 (human)): 106%
- residual activity (MUSK (human)): 104%
- residual activity (PAK2 (human)): 97.5%
- residual activity (PAK3 (human)): 93.5%
- residual activity (PHKG1 (human)): 98%
- residual activity (PKN1 (human)): 89%
- residual activity (RAF1 (human)): 97%
- residual activity (RPS6KA5 KD1 KD2 (human)): 108%
- residual activity (STK17A (human)): 96.5%
- residual activity (TAOK3 (human)): 101%
- residual activity (TSSK2 (human)): 93.5%
- residual activity (TXK (human)): 85.5%
